Paper PMC11251039, “Harnessing cholesterol uptake of malaria parasites for therapeutic applications” (EMBO Molecular Medicine, 2024)
Values joined by “and” are separate entries in the source; they are usually repeats but may differ in a detail not shown here. Identical values can stand only once. Like-named read-outs stand apart in the source and are kept apart here.

Key:
[1] = tested on: P. falciparum CAM3.II ring stages (0–3 h post invasion); assay: Plasmodium falciparum ring stage survival assay, resistant strain; type: cell-based; conditions: for Ring stage survival, individual data points (Figure 4C): CAM3.11, replicate experiments
Experimental: (§1) Following tight synchronisation using sorbitol and Percoll® floatation, ring stage CAM3.II and CAM3.IIREV parasites (0–3 h post invasion) at 1% parasitaemia and 2% haematocrit were incubated with 700 nM of compounds or solvent-only controls for exactly 6 h, before removing the drug, thoroughly washing in RPMI with HEPES, and returning to culture conditions for a further 66 h. Some cells were treated with 700 nM artesunate for 72 h as a no-growth control. DNA replication (indicating growth) was measured at the specified time using SYBR Safe DNA Stain. Microscope slide smears of each condition were stained with 10% v/v Giemsa and examined under a light microscope (×1000 magnification); with ‘viable’ (morphologically normal) and ‘non-viable’ (morphologically aberrant; vacuolated or pyknotic) parasites distinguished according to standard protocol (Witkowski et al, [2013]). Images were captured using a Leica ICC50 camera, with a resolution of 76 nm per pixel, and cropped from larger images using Fiji ImageJ.
(§2) Appendix Fraser/Curtis et al.
(§3) Cells were detached from a flask using 0.25% Trypsin with 0.2 g/L EDTA (Sigma T4049) and washed with culture media containing no phenol red. Cells were incubated with a serial dilution of each compound, or media/DMSO alone. The protein synthesis inhibitor cycloheximide (Sigma 01810) at 10 µg/mL was used as a positive control to determine background absorbance. 5,000 cells were seeded in each well. After 96 hours, 0.45 mg/mL methylthiazolyldiphenyl-tetrazolium bromide (MTT; Sigma M2128) was added and incubated for a further two hours, before mixing 1.1:1 with 10% w/v sodium dodecyl sulfate (SDS) to solubilise crystals and freezing the plate at -18 °C to stop the assay. Plates were defrosted at room temperature and absorbance was read at 570 nm in an Infinite M1000 pro plate reader […]
(§4) Plasmodium falciparum Ring Stage Survival Assay
(§5) Ring stage survival assays were conducted according to standard protocols with some modifications (27, 28). CAM3.11 and CAM3.11REV parasites were sorbitol synchronised twice, 12 hours apart, and then incubated for a further 30 hours until the majority of the parasites were mature schizonts (with clearly separated nuclei). Pelleted RBCs were incubated at 37 °C with heparinised RPMI for 15 minutes, and then centrifuged over 75% Percoll® in PBS for 15 minutes at 1,000 g. Mature schizonts were collected, washed with warm RPMI, and cultured for exactly three hours with fresh uRBCs and culture media. After 3 hours, the cultures were sorbitol synchronised and incubated in duplicate with 700 nM of artesunate, PAYb076a, GGA5, HJB8a53, a DMSO solvent-only control or media alone for exactly six hours, before removing the drug, washing in RPMI, and returning to culture conditions. Samples of each cell suspension were transferred to a -18 °C freezer at the start of the assay (time = 0) or treated for the entire 72 hours with 700 nM artesunate to determine background fluorescence under no-growth conditions. After a further 66 hours of incubation (totalling 72 hours), cells were […]
(§6) resuspended, and a sample from each well was transferred to a fresh plate and frozen at -18 °C.
(§7) Microscope slide smears were made using the remaining cells and stained with 10% v/v Giemsa. Plates were thawed and SYBR Safe DNA Gel Stain (final concentration 1/10,000) diluted in lysis buffer (as above) was added for DNA detection at 490 nm excitation / 520 nm emission on a FLUOstar Optima fluorescence plate reader. Parasite proliferation and viability were also assessed using Giemsa-stained smears examined under a light microscope (1,000× magnification); with ‘viable’ and ‘non-viable’ (vacuolated or pyknotic) parasites distinguished according to standard protocol. Images were captured using a Leica ICC50 camera, with a resolution of 76 nm per pixel.
(§8) Growth inhibition data were normalised by subtracting background fluorescence, […]

[2] = tested on: P. falciparum CAM3.IIREV ring stages (0–3 h post invasion); assay: Plasmodium falciparum ring stage survival assay, susceptible revertant strain; type: cell-based; conditions: for Parasite morphology in Giemsa-stained smears: 700 nM, 6 h treatment, 66 h further growth, CAM3.IIREV susceptible; for Ring stage survival, individual data points (Figure 4C): CAM3.11REV, replicate experiments
Experimental: as §1, §2, §3, §4, §5, §6, §7, §8

[3] = tested on: asexual P. falciparum 3D7 wild-type parasites; assay: P. falciparum asexual growth inhibition assay (SYBR Safe DNA replication); type: cell-based, Plasmodium falciparum; conditions: Plasmodium falciparum, 72 h, 3D7 (Susceptible), read-out: IC50, P. falciparum asexual growth inhibition
Experimental: P. falciparum asexual parasite assays commenced with ring-stage parasites at 1% parasitaemia and 1% haematocrit. 200 nM chloroquine (Sigma C6628) or artesunate (Sigma A3731) was used as a no-growth control. DNA replication (indicating growth) was measured at the specified time using SYBR Safe DNA Gel Stain (Invitrogen 33102) and a fluorescence microplate reader (Smilkstein et al, [2004]; Spry et al, [2013]). […]
(§9) Growth and Viability Inhibition Assays:
(§10) Plasmodium falciparum Growth Inhibition Assays:
(§11) P. falciparum parasites were maintained under routine culture conditions in red blood cells and RPMI 1640-Hepes with Glutamax, supplemented with 10 mM D-glucose, 480 μM hypoxanthine, 20 μg/mL gentamicin, 0.375% (w/v) AlbuMAXTM II (Thermo Fisher 11021029), and 2.5% v/v heat-inactivated human serum (17). Cultures were maintained at 37 °C […]
wildtype parasites except for the ring stage survival assay, as specified. Cultures were synchronised with 5% w/v D-sorbitol (18).
Growth inhibition was investigated according to methods described by Smilkstein et al. (19) with modifications by Spry et al. (20). Compounds or solvent controls (DMSO, ethanol, or ethyl acetate) were serially diluted 2-fold across flat-bottom 96-well plates. Culture media without compound was used as a negative control. 200 nM chloroquine (Sigma C6628) or artesunate (Sigma A3731) was used as a positive control to determine background fluorescence. The parasitaemia of a culture containing predominantly ring stage parasites was counted by Giemsa smear. The parasitaemia was adjusted to 1% by addition of fresh uRBCs and added to the plate at a final haematocrit of 1%, with 200 µL per well. The plates were incubated at 37 °C under humid microaerophilic conditions. After 24, 48, or 72 hours, the plates were transferred to a -18 °C freezer to stop the assay and lyse cells. Plates were thawed and lysate was mixed 1:1 with SYBR Safe DNA Gel Stain (Invitrogen 33102) (final concentration 1/10,000) diluted in lysis buffer (20 mM TRIS, 5 mM EDTA, 0.008% w/v Saponin, 0.08% w/v Triton-X 100, pH 7.5). Fluorescence was detected at 490 nm excitation/ 520 nm emission on a FLUOstar Optima fluorescence plate reader (BMG Labtech).

[4] = tested on: asexual P. falciparum CAM3.II (Resistant); assay: P. falciparum asexual growth inhibition assay, resistant strain; type: cell-based; conditions: Plasmodium falciparum, 72 h, read-out: IC50, P. falciparum asexual growth inhibition
Experimental: (§12) P. falciparum asexual parasite assays commenced with ring-stage parasites at 1% parasitaemia and 1% haematocrit. 200 nM chloroquine (Sigma C6628) or artesunate (Sigma A3731) was used as a no-growth control. DNA replication (indicating growth) was measured at the specified time using SYBR Safe DNA Gel Stain (Invitrogen 33102) and a fluorescence microplate reader (Smilkstein et al, [2004]; Spry et al, [2013]).
as §2, §9, §10, §11
(§13) Growth inhibition was investigated according to methods described by Smilkstein et al. (19) with modifications by Spry et al. (20). […] 200 nM chloroquine (Sigma C6628) or artesunate (Sigma A3731) was used as a positive control to determine background fluorescence. The parasitaemia of a culture containing predominantly ring stage parasites was counted by Giemsa smear. […] Fluorescence was detected at 490 nm excitation/ 520 nm emission on a FLUOstar Optima fluorescence plate reader (BMG Labtech).

[5] = tested on: asexual P. falciparum CAM3.IIREV (Susceptible); assay: P. falciparum asexual growth inhibition assay, revertant strain; type: cell-based; conditions: Plasmodium falciparum, 72 h, read-out: IC50, P. falciparum asexual growth inhibition
Experimental: as §12, §2, §9, §10, §11, §13

[6] = design: method as in Morris et al, 2011; conditions: ref Morris et al, 2011; cited from earlier work
[7] = 700 nM, 6 h treatment, 66 h further growth, CAM3.II resistant

CC(C)OC(=O)CCC(=O)OC1OC2OC3(C)CCC4C(C)CCC(C1C)C24OO3 (stereo not drawn) [ART-link]
Parasite morphology in Giemsa-stained smears [1, 7]: a combination of morphologically normal parasites (green arrows) and morphologically aberrant pyknotic or vacuolated forms | Ring stage survival, individual data points (Figure 4C) ([1]; listed as GGA5): 38.82 and -2.964 and -8.71 and 33.42 | Parasite morphology in Giemsa-stained smears [2]: only morphologically aberrant parasites were present | Ring stage survival, individual data points (Figure 4C) ([2]; listed as GGA5): -11.62 and -13.91 and -17.49 and -9.785

C[C@H]1[C@H](OC(=O)CCC(=O)O)O[C@@H]2O[C@@]3(C)CC[C@H]4[C@H](C)CC[C@@H]1[C@@]24OO3 [Artesunate, artesunate, reference compound]
IC50 [3]: 6.7 nM | IC50 ([4]; CAM3.II (Resistant)): 6.7 nM | IC50 [5]: 5.7 nM | Proportion of resistant parasites surviving treatment (DNA replication) ([1]; 700 nM, 6 h treatment, 66 h further growth, CAM3.II): ~ 30% | Parasite morphology in Giemsa-stained smears [1, 7]: a combination of morphologically normal parasites (green arrows) and morphologically aberrant pyknotic or vacuolated forms | Ring stage survival, individual data points (Figure 4C) [1]: 35.31 and 54.58 and 24.97 and 17.6 | Parasite morphology in Giemsa-stained smears [2]: only morphologically aberrant parasites were present | Ring stage survival, individual data points (Figure 4C) [2]: -6.969 and -6.239 and -6.353 and -8.044 | Half-life in blood [6]: 30 to 90 min

CC1CCC2C(C)C(OC(=O)CCC(=O)OC3CCC4C5CC=C6CC(O)CCC6(C)C5CCC34C)OC3OC4(C)CCC1C32OO4 (stereo not drawn) [C-17-ART]
IC50 ([3]; 3D7, 72 h): 10.6 nM | IC50 [4]: 10.5 nM | IC50 [5]: 11 nM | Parasite morphology in Giemsa-stained smears [1, 7]: only aberrant, non-viable parasites were visible | Ring stage survival, growth [1, 7]: complete growth inhibition | Ring stage survival, individual data points (Figure 4C) ([1]; listed as PAYb076a): 5.574 and -1.717 and 1.804 and -19.52 | Parasite morphology in Giemsa-stained smears [2]: only morphologically aberrant parasites were present | Ring stage survival, individual data points (Figure 4C) ([2]; listed as PAYb076a): -3.583 and -11.02 and -24.87 and -14.11
